Source: PubChem BioAssay AID2060354 (Molecular Pharmacology Branch, DTP, NCI, 2025)
pIC50: −log10 of the molar value. Several values for one entry are separate records, joined by “and”; a condition that tells them apart may be missing. Equal entries are not always repeated.

System: 519858-162-T-J1-PDC spheroid growth inhibition
Assay: Anticancer human tumor 519858-162-T-J1-PDC patient-derived colon adenocarcinoma cell line growth inhibition [TAK]
Conditions: spheroids with HUVEC and MSC; for viability, T/C: stronger effect = lower value
Method in brief: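 Tumor cells were grown as spheroids with HUVEC and hMSC (60:25:15) and treated with targeted agents combined with TAK-243 or ipatasertib. Drugs were tested in half-log steps down from near the clinical Cmax, or from 10 microM where Cmax was unknown.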

[1] = curve of first compound, second compound 0.3 µM
[2] = curve of first compound, second compound 0.949 µM
[3] = curve of first compound, second compound 3 µM
[4] = curve of first compound, second compound 9.49 µM
[5] = curve of first compound, second compound 30 µM
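Further: spheroids exposed to drugs for 7 days.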

CC(C)CC(NC(=O)CNC(=O)c1cc(Cl)ccc1Cl)B1OC(=O)CC(CC(=O)O)(C(=O)O)O1 (stereo unspecified) + CC(C)NCC(C(=O)N1CCN(c2ncnc3c2C(C)CC3O)CC1)c1ccc(Cl)cc1
pIC50 [1]: < 7.00 | pIC50 [2]: < 7.00 | pIC50 [3]: < 7.00 | pIC50 [4]: < 7.00 | pIC50 [5]: < 7.00 | viability, T/C (second compound 0.3 µM, first compound 0.000316 µM): 94.4% | viability, T/C (second compound 0.3 µM, first compound 0.001 µM): 101% | viability, T/C (second compound 0.3 µM, first compound 0.00316 µM): 99% | viability, T/C (second compound 0.3 µM, first compound 0.01 µM): 79% | viability, T/C (second compound 0.3 µM, first compound 0.0316 µM): 95.9% | viability, T/C (second compound 0.3 µM, first compound 0.1 µM): 59.7% | viability, T/C (second compound 0.949 µM, first compound 0.000316 µM): 114% | viability, T/C (second compound 0.949 µM, first compound 0.001 µM): 91.7% | viability, T/C (second compound 0.949 µM, first compound 0.00316 µM): 79.5% | viability, T/C (second compound 0.949 µM, first compound 0.01 µM): 81.3% | viability, T/C (second compound 0.949 µM, first compound 0.0316 µM): 88% | viability, T/C (second compound 0.949 µM, first compound 0.1 µM): 67.7% | viability, T/C (second compound 3 µM, first compound 0.000316 µM): 101% | viability, T/C (second compound 3 µM, first compound 0.001 µM): 88.5% | viability, T/C (second compound 3 µM, first compound 0.00316 µM): 92.5% | viability, T/C (second compound 3 µM, first compound 0.01 µM): 71.3% | viability, T/C (second compound 3 µM, first compound 0.0316 µM): 81.7% | viability, T/C (second compound 3 µM, first compound 0.1 µM): 82.9% | viability, T/C (second compound 9.49 µM, first compound 0.000316 µM): 90% | viability, T/C (second compound 9.49 µM, first compound 0.001 µM): 100% | viability, T/C (second compound 9.49 µM, first compound 0.00316 µM): 80.4% | viability, T/C (second compound 9.49 µM, first compound 0.01 µM): 77.2% | viability, T/C (second compound 9.49 µM, first compound 0.0316 µM): 92.5% | viability, T/C (second compound 9.49 µM, first compound 0.1 µM): 71.1% | viability, T/C (second compound 30 µM, first compound 0.000316 µM): 90.5% | viability, T/C (second compound 30 µM, first compound 0.001 µM): 87.7% | viability, T/C (second compound 30 µM, first compound 0.00316 µM): 108% | viability, T/C (second compound 30 µM, first compound 0.01 µM): 79.5% | viability, T/C (second compound 30 µM, first compound 0.0316 µM): 73.3% | viability, T/C (second compound 30 µM, first compound 0.1 µM): 78.6%

Cn1cnc2c(F)c(Nc3ccc(Br)cc3Cl)c(C(=O)NOCCO)cc21 + CC(C)NCC(C(=O)N1CCN(c2ncnc3c2C(C)CC3O)CC1)c1ccc(Cl)cc1
pIC50 [1]: 7.11 | pIC50 [2]: 7.16 | pIC50 [3]: 7.02 | pIC50 [4]: 6.86 | pIC50 [5]: 6.79 | viability, T/C (second compound 0.3 µM, first compound 0.00949 µM): 80.3% | viability, T/C (second compound 0.3 µM, first compound 0.03 µM): 62.7% | viability, T/C (second compound 0.3 µM, first compound 0.0949 µM): 49% | viability, T/C (second compound 0.3 µM, first compound 0.3 µM): 30.5% | viability, T/C (second compound 0.3 µM, first compound 0.949 µM): 17% | viability, T/C (second compound 0.3 µM, first compound 3 µM): 14% | viability, T/C (second compound 0.949 µM, first compound 0.00949 µM): 88.5% | viability, T/C (second compound 0.949 µM, first compound 0.03 µM): 64% | viability, T/C (second compound 0.949 µM, first compound 0.0949 µM): 44.1% | viability, T/C (second compound 0.949 µM, first compound 0.3 µM): 32.8% | viability, T/C (second compound 0.949 µM, first compound 0.949 µM): 15.7% | viability, T/C (second compound 0.949 µM, first compound 3 µM): 16.8% | viability, T/C (second compound 3 µM, first compound 0.00949 µM): 73.8% | viability, T/C (second compound 3 µM, first compound 0.03 µM): 66.9% | viability, T/C (second compound 3 µM, first compound 0.0949 µM): 50.1% | viability, T/C (second compound 3 µM, first compound 0.3 µM): 30.7% | viability, T/C (second compound 3 µM, first compound 0.949 µM): 24.6% | viability, T/C (second compound 3 µM, first compound 3 µM): 15.5% | viability, T/C (second compound 9.49 µM, first compound 0.00949 µM): 84.2% | viability, T/C (second compound 9.49 µM, first compound 0.03 µM): 85.3% | viability, T/C (second compound 9.49 µM, first compound 0.0949 µM): 53.8% | viability, T/C (second compound 9.49 µM, first compound 0.3 µM): 36.2% | viability, T/C (second compound 9.49 µM, first compound 0.949 µM): 23.4% | viability, T/C (second compound 9.49 µM, first compound 3 µM): 17% | viability, T/C (second compound 30 µM, first compound 0.00949 µM): 101% | viability, T/C (second compound 30 µM, first compound 0.03 µM): 79% | viability, T/C (second compound 30 µM, first compound 0.0949 µM): 68.7% | viability, T/C (second compound 30 µM, first compound 0.3 µM): 32.2% | viability, T/C (second compound 30 µM, first compound 0.949 µM): 21% | viability, T/C (second compound 30 µM, first compound 3 µM): 21.4%

CC(=O)Nc1cccc(-n2c(=O)n(C3CC3)c(=O)c3c(Nc4ccc(I)cc4F)n(C)c(=O)c(C)c32)c1
viability, T/C (compound 94.9 pM): 89.9% and 91.8% | viability, T/C (compound 0.0003 µM): 93.7% and 106% | viability, T/C (compound 0.000949 µM): 72.7% and 67.4% | viability, T/C (compound 0.003 µM): 71.1% and 79.3% | viability, T/C (compound 0.00949 µM): 34.1% and 44.1% | viability, T/C (compound 0.03 µM): 21.4% and 26.3% | pIC50 (curve of compound): 8.25 and 8.07

CC(C)CC(NC(=O)CNC(=O)c1cc(Cl)ccc1Cl)B1OC(=O)CC(CC(=O)O)(C(=O)O)O1 (stereo unspecified)
viability, T/C (compound 0.000316 µM): 86.2% and 83.8% | viability, T/C (compound 0.00316 µM): 106% and 95.6% | viability, T/C (compound 0.01 µM): 92.6% and 72.9% | viability, T/C (compound 0.0316 µM): 74.9% and 77% | viability, T/C (compound 0.1 µM): 74.5% and 84.2% | pIC50 (curve of compound): < 7.00

COc1c(OCCCN2CCOCC2)ccc2c3n(c(=NC(=O)c4cnc(N)nc4)nc12)CCN3
viability, T/C (compound 0.00316 µM): 95.7% and 91.3% | viability, T/C (compound 0.01 µM): 80.9% and 100% | viability, T/C (compound 0.0316 µM): 81.7% and 72.2% | viability, T/C (compound 0.1 µM): 48.8% and 62.1% | viability, T/C (compound 0.316 µM): 43.9% and 52.3% | viability, T/C (compound 1 µM): 33.8% and 44.4% | pIC50 (curve of compound): 6.95 and 6.50

CCCS(=O)(=O)Nc1ccc(F)c(C(=O)c2c[nH]c3ncc(-c4ccc(Cl)cc4)cc23)c1F
viability, T/C (compound 0.316 µM): 99.3% and 108% | viability, T/C (compound 1 µM): 91.4% and 91.7% | viability, T/C (compound 3.16 µM): 105% and 126% | viability, T/C (compound 10 µM): 91.9% and 93% | viability, T/C (compound 31.6 µM): 114% and 129% | viability, T/C (compound 100 µM): 132% and 140% | pIC50 (curve of compound): < 4.00

COC1CC2CCC(C)C(O)(O2)C(=O)C(=O)N2CCCCC2C(=O)OC(C(C)CC2CCC(OCCO)C(OC)C2)CC(=O)C(C)C=C(C)C(O)C(OC)C(=O)C(C)CC(C)C=CC=CC=C1C (stereo unspecified)
viability, T/C (compound 0.000316 µM): 98.9% and 86.7% | viability, T/C (compound 0.00316 µM): 88.3% and 111% | viability, T/C (compound 0.01 µM): 76.2% and 91.2% | viability, T/C (compound 0.0316 µM): 89.6% and 75.7% | viability, T/C (compound 0.1 µM): 71.5% and 82.5% | pIC50 (curve of compound): < 7.00

CC(C)n1nc(-c2ccc3oc(N)nc3c2)c2c(N)ncnc21
viability, T/C (compound 0.001 µM): 104% and 100% | viability, T/C (compound 0.00316 µM): 94.8% and 95.9% | viability, T/C (compound 0.01 µM): 112% and 97.5% | viability, T/C (compound 0.0316 µM): 78.9% and 93.1% | viability, T/C (compound 0.1 µM): 74.1% and 61.6% | pIC50 (curve of compound): < 7.00

Cc1nc(NC(=O)N2CCCC2C(N)=O)sc1-c1ccnc(C(C)(C)C(F)(F)F)c1 (stereo unspecified)
viability, T/C (compound 0.0316 µM): 104% and 89.1% | viability, T/C (compound 0.1 µM): 79.9% and 74% | viability, T/C (compound 0.316 µM): 91% and 80.8% | viability, T/C (compound 1 µM): 81.2% and 80.4% | viability, T/C (compound 3.16 µM): 79.6% and 74% | viability, T/C (compound 10 µM): 61.9% and 50% | pIC50 (curve of compound): < 5.00 and 5.00
